From patent US8906829B2, “Synergistic algicidal compositions including hydrazone derivatives and copper” (Dow AgroSciences LLC, priority 2010, dated 2014)

What was measured:
C. reinhardtii CC-1928 = assay: Effect of copper on activity of hydrazones: in vitro growth inhibition of C. reinhardtii in TAP Cu minus / TAP Cu plus medium (Example 10); format: cell-based, Chlamydomonas reinhardtii; settings: test compound 1 μg/mL, 48 h; for inhibition of growth at 1 µg/mL: Chlamydomonas reinhardtii, TAP Cu minus medium, read-out: % Inhn. Minus Copper Observed; for % Inhn. Plus Copper Observed: TAP Cu plus medium (CuCl2)
Experimental: In vitro toxicity assays against C. reinhardtii CC-1928 (wild type mt+137c green in dark subclone) obtained from the Chlamydomonas Resource Center at Duke University were conducted using TAP liquid growth medium described by Gorman and Levine Proc. Natl. Acad. Sci. USA 1965, 54, 1665-1669 except that CuSO4.5H2O, normally included as a component of Hutner's trace element stock solution (Hutner et al. Proc. Am. Philos. Soc. 1950, 94, 152-170), was omitted. The TAP medium lacking Cu (TAP Cu minus) was prepared by adding 400 mg NH4Cl, 10 mL of 100× Tris-Acetate (242 g Tris-base and 100 mL glacial acetic acid in 1000 mL milli Q water), and 8.3 mL of 120.5× phosphate buffer (14.34 g K2HPO4 and 7.26 g KH2PO4 in 1000 mL milli Q water) to milli Q water to make a total volume of 1 liter. The medium was treated with 0.5 g Chelex 100 resin (Bio-Rad Analytical grade, 50-100 mesh, sodium form, cat#142-2822) by stirring at room temperature for 1 hour. 900 mL were decanted and 45.9 mg of CaCl2.2H2O, 90 mg of MgSO4.7H2O and 0.9 mL Hutner's trace elements lacking CuSO4.5H2O were added and the solution was filter-sterilized. Medium containing copper (TAP Cu plus) was prepared by adding CuCl2.2H2O to the TAP Cu minus medium at 20 μM. Test compounds were dissolved in dimethylsulfoxide (DMSO) at 2 mg/mL then dilutions in TAP Cu minus and TAP Cu plus media were prepared in sterilized microcentrifuge tubes at 2 μg/mL. 100 μL aliquots of diluted compound were dispensed into flat-bottomed 96-well microtiter plates. C. reinhardtii was maintained under 12 h of light on TAP agar plates at 18° C. A loopful of cells was added to 50 mL of TAP Cu minus medium and the culture incubated with shaking at 200 rpm at 27° C. for 24 h. The culture (10 to 20 mL aliquot) was centrifuged in a bench centrifuge at 2000 rpm for 2 min. The resulting cell pellet was resuspended in 5 mL sterile milli Q water (which had been treated with Chelex 100 resin using 0.5 g resin per liter of water by stirring at room temperature for 1 h), and recentrifuged. The cells were resuspended in TAP Cu minus medium, and the suspension adjusted to 2×10^5 spores per mL. Microtiter plates containing compounds as described above were inoculated with 100 μL of this cell suspension and the plates incubated at 27° C. for 48 h before assessing algal growth by measuring light scattering in a NepheloStar plate-reader. Growth inhibition was determined by comparing growth in the presence of test compound with growth in control wells lacking test compound. Results for growth inhibition by test compounds at 1 μg/mL in TAP Cu plus medium (% Inhn Plus Copper Observed) were compared with predicted values (% Inhn Plus Copper Predicted) that were calculated using the formula set forth by S. R. Colby in Weeds 1967, 15, 20-22 based on results obtained for the same compounds in TAP Cu minus medium (% Inhn Minus Copper Observed). […] Results illustrate that hydrazones and copper produce a synergistic algicidal effect towards C. reinhardtii.

[1] = tested on: Synechocystis sp. strain 6803; assay: Effect of copper on activity of hydrazones: in vitro growth inhibition of Synechocystis in BG-11 Cu minus / Cu plus medium (Example 11); format: cell-based; settings: 72 h; for inhibition of growth at 0.05 µg/mL / inhibition of growth at 0.00625 µg/mL: Synechocystis, BG-11 Cu minus medium, read-out: % Inhn. Minus Copper Observed; for % Inhn. Plus Copper Observed: BG-11 Cu plus medium
Experimental: In vitro toxicity assays against the cyanobacterium (blue-green alga) Synechocystis sp. strain 6803 were conducted using BG-11 medium except that copper micronutrient, normally included as CuSO4.5H2O, was omitted. The medium, termed BG-11 Cu minus, was prepared by dissolving 1.5 g NaNO3, 40 mg K2HPO4, 6 mg citric acid, 1 mg Na2EDTA and 20 mg Na2CO3 in 1 liter of milli Q water and treating the solution with 0.5 g Chelex 100 resin (Bio-Rad Analytical grade, 50-100 mesh, sodium form, cat#142-2822) by stifling at room temperature for 1 h. 900 mL were decanted and 67.5 mg MgSO4.7H2O, 32.4 mg […], 5.4 mg ferric ammonium citrate and 0.9 mL trace metal mix A5 without copper (2.86 g H3BO3, 1.81 g MnCl2.4H2O, 222 mg ZnSO4.7H2O, 390 mg Na2MoO4.2H2O and Co(NO3)2.6H2O in 1 L Milli Q water) was added. The pH was adjusted to 7.1 and the medium was filter-sterilized. Medium containing copper (BG-11 Cu plus) was prepared by adding CuCl2.2H2O to the BG-11 Cu minus medium at 0.2 μM. Test compounds were dissolved in dimethylsulfoxide (DMSO) at 2 mg/mL then appropriate dilutions in BG-11 Cu minus and BG-11 Cu plus media were prepared in sterilized microcentrifuge tubes. 100 μL aliquots were dispensed into flat-bottomed 96-well microtiter plates. Synechocystis was maintained under 24 h of light on BG-11 agar plates at 27° C. A loopful of cells was added to 50 mL of BG-11 Cu minus growth medium and the culture was incubated with shaking at 200 rpm at 27° C. for 24 h. The culture (10 to 20 mL aliquot) was centrifuged in a bench centrifuge at 2400 rpm for 2 min. The resulting cell pellet was resuspended in 5 mL sterile milli Q water (which had been treated with Chelex 100 resin using 0.5 g resin per liter of water by stirring at room temperature for 1 h), and recentrifuged. The cells were resuspended in BG-11 Cu minus medium, and the suspension adjusted to 4×10^5 spores per mL. Microtiter plates containing compounds as described above were inoculated with 100 μL of this cell suspension and the plates incubated at 27° C. for 72 h before assessing algal growth by measuring light scattering in a NepheloStar plate reader. Growth inhibition was determined by comparing growth in the presence of test compound with growth in control wells lacking test compound. Results for growth inhibition by test compounds in BG-11 Cu plus medium (% Inhn Plus Copper Observed) were compared with predicted values (% Inhn Plus Copper Predicted) that were calculated using the formula set forth by S. R. Colby in Weeds 1967, 15, 20-22 based on-results obtained for the same compounds in BG-11 Cu minus medium (% Inhn Minus Copper Observed) and the inhibition attributed to copper chloride alone, as determined by comparing growth in copper-minus and copper-plus media without any test compound across experiments. Results illustrate that hydrazones and copper produce a synergistic algicidal effect towards Synechocystis.

Compound	inhibition of growth at 1 µg/mL (C. reinhardtii CC-1928) [%]	% Inhn. Plus Copper Observed (C. reinhardtii CC-1928) [%]	inhibition of growth at 0.05 µg/mL ([1]; Test Concn. 0.05 μg/mL) [%]	% Inhn. Plus Copper Observed ([1]; Test Concn. 0.05 μg/mL) [%]	melting point [°C]	inhibition of growth at 0.00625 µg/mL ([1]; Test Concn. 0.00625 μg/mL) [%]	% Inhn. Plus Copper Observed ([1]; Test Concn. 0.00625 μg/mL) [%]
C/C(=N\NC(=O)c1ccccc1)c1ccccc1O [Compound 2]	10	95	-8	97	185 to 187	–	–
O=C(N/N=C/c1cc(Cl)ccc1O)c1ccccc1 [Compound 3]	25	62	-17	96	–	–	–
O=C(N/N=C/c1cc(Cl)cc(Cl)c1O)c1ccc(F)cc1 [Compound 4]	12	92	-14	96	–	–	–
C/C(=N\NC(=O)c1ccccc1Br)c1cc(Cl)cc(Cl)c1O [Compound 5]	26	95	-10	91	220 to 222	–	–
O=C(N/N=C/c1cc(Cl)cc(Cl)c1O)c1cccc(Cl)c1 [Compound 8]	15	92	62	92	–	–	–
O=C(N/N=C/c1cc(Cl)cc(Cl)c1O)c1ccc(Br)cc1 [Compound 9]	7	90	–	–	–	15	74
O=C(N/N=C/c1cc(Cl)cc(Cl)c1O)c1ccc2ccccc2c1 [Compound 10]	24	93	44	95	215 to 217	–	–
O=C(N/N=C/c1cc(Br)cc(Br)c1O)c1ccccc1 [Compound 11]	31	96	50	97	–	–	–
C/C(=N\NC(=O)Cc1ccccc1)c1cc(Cl)cc(Cl)c1O [Compound 13]	17	96	22	96	199 to 204	–	–
Cc1ccccc1C(=O)N/N=C/c1cc(Cl)cc(Br)c1O [Compound 16]	-3	95	-5	94	–	–	–
O=C(N/N=C/c1cc(Cl)cc(Br)c1O)c1cccc(Br)c1 [Compound 17]	32	83	–	–	–	59	72
COc1cc(Br)cc(/C=N/NC(=O)c2cccc(Br)c2)c1O [Compound 19]	12	52	-18	43	–	–	–
COc1cc(Br)cc(/C=N/NC(=O)c2ccc(C)cc2)c1O [Compound 20]	-6	94	9	86	–	–	–
O=C(N/N=C/c1cc(Cl)cc(Cl)c1O)c1cccc(C(F)(F)F)c1 [Compound 22]	-14	96	48	94	165 to 169	–	–
O=C(N/N=C/c1c(O)cccc1Cl)c1ccc([N+](=O)[O-])cc1 [Compound 49]	33	93	–	–	> 300	–	–
O=C(N/N=C/c1c(O)cccc1Cl)c1cccc(F)c1 [Compound 69]	–	–	–	–	257 to 259	–	–
O=C(N/N=C/c1c(O)cccc1Cl)c1ccc(Cl)cc1 [Compound 70, 4-chlorobenzoic acid [1-(2-chloro-6-hydroxyphenyl)-methylidene]-hydrazide]	–	–	–	–	273 to 277	–	–
O=C(N/N=C/c1cc(C(F)(F)F)ccc1O)c1ccccc1O [Compound 71]	–	–	–	–	277 to 281	–	–
